As a reminder, the melting point is the temperature of the solid-liquid transition. On to `Cc1ccc(CN2CCOCC2)cn1`, for which the melting point fell in the range of 51 to 52 °C.

Source of the values: patent publication US8101750B2, “Process for the manufacturing of the compound 2-hydroxy-3-[5-(morpholin-4-ylmethyl)pyridin-2-yl]1H-indole-5-carbonitrile 701” (AstraZeneca AB, priority 2007, dated 2012).
